Source: patent publication US9700637B2, “Reaction-based fluorescent probes for detecting zinc” (Massachusetts Institute of Technology, priority 2013, dated 2017)

Key:
PC-3 cells = test: Mitochondrial zinc uptake imaging in prostate cells; format: cell-based, human
Experimental: FIG. 25 depicts decreased mitochondrial zinc uptake in cancerous cell lines. RWPE-1, RWPE-2, and PC-3 prostate cell lines were incubated for 24 h in medium supplemented with (+) and without (−) 50 μM ZnCl2. RWPE-1 is the only cell line that has a statistically significant (p<0.001) increase in mitochondrial zinc uptake when incubated in zinc-enriched media.
With a new mitochondrial-targeting sensor in hand, we used DA-ZP1-TPP to investigate the ability of prostate cell lines to accumulate zinc within their mitochondria. RWPE-1 and RWPE-2 are a pair of genetically similar cell lines that retain normal epithelial cell morphology, express cytokeratin markers for prostate epithelial cells, and are hormone sensitive. […] To explore the ability of RWPE-1 and -2 cells to sequester zinc in mitochondria, we measured the fluorescence intensity of DA-ZP1-TPP in both lines after the cells were bathed in normal or zinc-enriched (50 μM ZnCl2) keratinocyte serum-free medium (KSFM) for 24 h prior to imaging. RWPE-1 cells bathed in zinc-enriched medium have a fluorescence signal intensity that is ˜2.3-fold higher than cells bathed in normal medium (FIG. 25). […] Importantly, in both cell lines the observed fluorescence signals from DA-ZP1-TPP are sensitive to ZnPT and TPEN and have good correlation with MitoTracker Red, the Pearson's r values being 0.68±0.09 and 0.59±0.1 for RWPE-1 and -2, respectively. […]

[1] = pH profile of fluorescence; format: physicochemical
Experimental: FIG. 21 depicts normalized fluorescence signals for DA-ZP1-TPP as a function of increasing pH in the presence of 125 μM ZnCl2 or 250 μM EDTA. Data were acquired 17.5 mM (0.1% v/v) acetic acid in milli-Q H2O beginning at pH 3.5. The pH of the solution was increased by sequential addition of aqueous KOH. The total volume of KOH added was less than 5% of the total volume. λex=475 nm.
FIG. 26 depicts in vitro characterization of DA-ZP1-A3. (a) UV-vis and (b) fluorescence spectra of a 5 μM solution of DA-ZP1-A3 in buffer (50 mM PIPES, 100 mM KCl; pH 7). Spectra were acquired initially, upon addition of 100 μM ZnCl2, and again after addition of 200 μM EDTA. (c) Time-dependent change in the normalized absorbance of a ca. 5 μM solution DA-ZP1-A3 at 37° C. in buffer (50 mM PIPES, 100 mM KCl; pH 7) in the presence of 100 μM ZnCl2 (λabs=510 nm) or EDTA (λabs=520 nm). (d) Integrated fluorescence intensity of a 1 μM solution of ZP1-A3 (circles) or DA-ZP1-A3 (squares) as a function of pH.
Next, we investigated the pH profile of DA-ZP1-TPP. The use of nitrogen atoms to coordinate zinc endows Zinpyr sensors with selectivity for zinc over calcium and magnesium, but also renders them pH sensitive. […] Protonation of these amines leads to increased background fluorescence because protons can diminish PeT in a manner similar to that of zinc ions. […]

porcine liver esterase = test: Deacetylation by porcine liver esterase (UV-vis absorbance); format: in vitro ADME; settings: 1.25 units porcine liver esterase, 37° C., pH 7
Experimental: FIG. 23 depicts kinetic traces for the deacetylation of DA-ZP1-TPP. The half-life for deacetylation of a 2.75 μM solution of DA-ZP1-TPP, at 37° C. in 50 mM PIPES buffer (pH 7) and 100 mM KCl, was measured in the presence of 125 μM ZnCl2 (+Zn), 250 μM EDTA (−Zn), or 1.25 units of porcine liver esterase (Esterase). The change in absorbance at 520 nm (EDTA and esterase) or 510 nm (ZnCl2) was used to monitor the reaction.
DA-ZP1-TPP has a zinc-induced fluorescence response and is relatively stable to uncatalyzed hydrolysis and esterase activity. […] Other late 3d-block transition metal ions, such as Co(II) and Cu(II), can coordinate to DA-ZP1-TPP but are generally not available in appreciable chelatable quantities within the cell. In addition to monitoring selectivity in the fluorescence response, we used UV-vis spectroscopy to investigate the rate and zinc-specificity of metal-mediated ester hydrolysis. DA-ZP1-TPP deacetylation results in opening of the lactone ring and restoration of conjugation across the xanthene ring. By monitoring the absorbance of the xanthene it system, we could interrogate deacetylation kinetics in a manner that is independent of the fluorescence response. […] To determine whether ester hydrolysis depends on the metal-binding core of DA-ZP1-TPP, we measured the deacetylation kinetics of fluorescein diacetate (DA-FL) under analogous conditions. […]

[2] = cited from earlier work

| pH at which a strong zinc-dependent fluorescence response is displayed ([1]; presence of excess zinc ions (125 μM ZnCl2)) | t1/2-Esterase of deacetylation (porcine liver esterase) | Structure (SMILES) | increase in sensor fluorescence intensity, zinc-enriched medium (PC-3 cells; PC-3, 50 μM ZnCl2, RMPI 1640 with 10% FBS, 24 h) | increase in fluorescence intensity, zinc-supplemented serum-free medium (PC-3 cells; PC-3, serum-free RMPI 1640, 15 μM ZnCl2, 3 h) | fluorescence turn-on under acidic conditions ([1]; absence of zinc) | pKa of tertiary nitrogen atoms on the DPA units [2] |
| --- | --- | --- | --- | --- | --- | --- |
| > 5 | 2.9 h | CC(=O)Oc1c(Cl)cc2c(c1CN(Cc1ccccn1)Cc1ccccn1)Oc1c(cc(Cl)c(OC(C)=O)c1CN(Cc1ccccn1)Cc1ccccn1)C21OC(=O)c2ccc(C(=O)NCC[P+](c3ccccc3)(c3ccccc3)c3ccccc3)cc21 [DA-ZP1-TPP] | no statistically significant increase | no statistically significant increase | no significant fluorescence turn-on under acidic conditions | – |
| – | – | O=C(NCC[P+](c1ccccc1)(c1ccccc1)c1ccccc1)c1ccc2c(c1)C1(OC2=O)c2cc(Cl)c(O)c(CN(Cc3ccccn3)Cc3ccccn3)c2Oc2c1cc(Cl)c(O)c2CN(Cc1ccccn1)Cc1ccccn1 [ZP1-TPP] | – | – | – | 6.96 |
